Assay results reported in article PMC6712577 (Neuron, 2019).

How the values were obtained:
NAcC D2-MSNs [1] = test: electrically evoked EPSCs, whole-cell voltage clamp, NAcC D2-MSNs; assay type: cell-based, mice; details: for EPSC amplitude, %baseline (block of stimulation-induced LLP) / EPSC amplitude, %baseline (block of stimulation-induced potentiation) / EPSC amplitude, %baseline (block of substance-P-induced potentiation): mean ± SEM; for effect of antagonist alone on synaptic properties: absence of other stimuli, Figures S2C–S2F
NAcC D2-MSNs [2] = test: paired pulse ratios, NAcC D2-MSNs; assay type: cell-based, mice; details: D1-MSN 50-Hz stimulation with inhibitor; Figures S7A–S7D
[3] = system: AMPAR currents on NAcC D2-MSNs; test: AMPAR current-voltage relationship; assay type: cell-based, mice; details: +40 mV; for inward rectification of AMPAR currents caused by stimulation: D1-MSN 50-Hz stimulation with inhibitor, Figures 7B, 7D, 7F, 7H
NAcS D2-MSNs = test: electrically evoked EPSCs, whole-cell voltage clamp, NAcS D2-MSNs; assay type: cell-based, mice; details: D1-MSN 50-Hz stimulation
[4] = biological target: neurokinin 1 receptor (NK1R) (Homo sapiens, UniProt P25103); test: BRET assay, antagonist mode; assay type: biochemical; details: antagonist added 15 min before 100 nM substance P, Figure S4G
neurokinin 1 receptor (NK1R), sequence (P25103 whole entry, species assumed): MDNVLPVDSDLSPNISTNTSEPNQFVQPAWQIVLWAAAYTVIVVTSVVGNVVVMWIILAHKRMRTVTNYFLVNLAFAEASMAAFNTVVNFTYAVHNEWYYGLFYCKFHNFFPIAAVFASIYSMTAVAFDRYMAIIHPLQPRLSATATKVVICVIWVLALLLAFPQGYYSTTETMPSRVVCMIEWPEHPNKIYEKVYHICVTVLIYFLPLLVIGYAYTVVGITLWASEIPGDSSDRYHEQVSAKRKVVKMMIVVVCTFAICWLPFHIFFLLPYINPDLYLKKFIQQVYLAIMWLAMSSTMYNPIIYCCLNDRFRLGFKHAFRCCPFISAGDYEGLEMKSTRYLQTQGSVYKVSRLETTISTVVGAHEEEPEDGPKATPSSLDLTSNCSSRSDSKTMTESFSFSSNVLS
neurokinin 1 receptor (NK1R), sequence (P50148 whole entry partner, species assumed): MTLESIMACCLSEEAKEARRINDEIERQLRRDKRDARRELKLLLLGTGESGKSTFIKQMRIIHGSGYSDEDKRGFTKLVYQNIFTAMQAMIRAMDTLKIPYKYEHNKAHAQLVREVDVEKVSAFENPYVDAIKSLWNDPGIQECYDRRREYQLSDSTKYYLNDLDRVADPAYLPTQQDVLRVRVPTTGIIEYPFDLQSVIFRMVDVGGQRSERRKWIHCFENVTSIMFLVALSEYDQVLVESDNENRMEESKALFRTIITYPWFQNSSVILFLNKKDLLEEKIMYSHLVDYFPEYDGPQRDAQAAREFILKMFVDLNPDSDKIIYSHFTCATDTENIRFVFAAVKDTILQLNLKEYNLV

NAcC ChAT neurons = test: ChAT neuron firing rate; assay type: cell-based, mice; details: for spontaneous ChAT firing rate in the absence of substance P: L-733,060 10 μM or aprepitant 1 μM, Figure S4I; for stimulation-enhanced ChAT firing rate: 50-Hz D1-MSN stimulation; for substance-P-enhanced ChAT firing rate: substance P 100 nM

Molecule: COc1ccc2c(c1)CC[C@@H]1[C@@H]2CC[C@]2(C)[C@@H](NCCCCCCN3C(=O)C=CC3=O)CC[C@@H]12 [U-73122]
- EPSC amplitude, %baseline (block of stimulation-induced LLP) (NAcC D2-MSNs [1]; U-73122 3 μM, D1-MSN 50-Hz stimulation, n = 9, p < 0.05, Figure 7C): 66.06% ± 8.70%
- paired pulse ratio change after stimulation (NAcC D2-MSNs [2]): significantly increased
- inward rectification of AMPAR currents caused by stimulation [3]: prevented inward rectification

Molecule: CC[N+](CC)(CCNC(=O)C(=O)NCC[N+](CC)(CC)Cc1ccccc1Cl)Cc1ccccc1Cl [ambenonium]
- stimulation-induced depression on NAcS D2-MSNs (NAcS D2-MSNs; ambenonium 40 nM (acetylcholinesterase block), Figure S6G): did not alleviate the depression

Molecule: Oc1ccc2c3c1O[C@H]1c4[nH]c5c(c4C[C@@]4(O)[C@@H](C2)N(CC2CC2)CC[C@]314)C[C@@]1(O)[C@H]2Cc3ccc(O)c4c3[C@@]1(CCN2CC1CC1)[C@H]5O4 [norbinaltorphimine]
- EPSC amplitude, %baseline (stimulation-induced depression) (NAcS D2-MSNs; norbinaltorphimine 400 nM, mean ± SEM, Figure S1H): 61.56% ± 10.78%

Molecule: C[C@@H](O[C@H]1OCCN(Cc2n[nH]c(=O)[nH]2)[C@H]1c1ccc(F)cc1)c1cc(C(F)(F)F)cc(C(F)(F)F)c1 [aprepitant]
- concentration of maximal inhibition of receptor activity [4]: ~10 µM
- effect of antagonist alone on synaptic properties (NAcC D2-MSNs [1]): neither L-733,060 nor aprepitant altered synaptic properties
- EPSC amplitude, %baseline (block of stimulation-induced potentiation) (NAcC D2-MSNs [1]; aprepitant 1 μM, single 5-s, 50-Hz train of D1-MSN stimulation, n = 8, p > 0.05, Figure 2G): 98.02% ± 10.73%
- spontaneous ChAT firing rate in the absence of substance P (NAcC ChAT neurons): did not have effects on spontaneous ChAT firing rate
- stimulation-enhanced ChAT firing rate (NAcC ChAT neurons; aprepitant 1 μM, n = 13, p > 0.05, Figure 5B): suppressed, but not completely blocked
- substance-P-enhanced ChAT firing rate (NAcC ChAT neurons; aprepitant 1 μM, Figure S4H): suppressed

Molecule: CC(=O)C1=C(O)[C@@H]2[C@H]3c4c[nH]c5cccc(c45)C[C@H]3C(C)(C)N2C1=O [CPA, cyclopiazonic acid]
- EPSC amplitude, %baseline (block of stimulation-induced LLP) (NAcC D2-MSNs [1]; CPA, depletion of calcium stores, D1-MSN 50-Hz stimulation, n = 8, p > 0.05, Figure 7G): 80.18% ± 7.07%
- paired pulse ratio change after stimulation (NAcC D2-MSNs [2]): significantly increased
- inward rectification of AMPAR currents caused by stimulation [3]: prevented inward rectification

Molecule: CN1CCN(CC(=O)N2c3ccccc3C(=O)Nc3cccnc32)CC1 [pirenzepine]
- EPSC amplitude, %baseline (block of substance-P-induced potentiation) (NAcC D2-MSNs [1]; pirenzepine 1 μM, substance P 100 nM, Figures 6A, S6B): 103.1% ± 12.95%
- EPSC amplitude, %baseline (block of substance-P-induced potentiation) (NAcC D2-MSNs [1]; pirenzepine 1 μM, substance P 1 μM, Figures 6A, S6B): 89.88% ± 9.14%
- synaptic properties in D2-MSNs (NAcC D2-MSNs [1]; pirenzepine alone, Figure S6E): did not affect synaptic properties
- ChAT firing rate at baseline and its enhancement due to substance P (NAcC ChAT neurons; pirenzepine, Figures S6C, S6D): neither affected ChAT firing rate at baseline nor the enhancement in firing frequency due to substance P
- AMPAR inward rectification caused by substance P or 50 Hz stimulation ([3]; pirenzepine, Figures 6C, 6D): prevented this rectification

Molecule: CC[C@H](NC(=O)c1c(C)c(-c2ccccc2)nc2ccccc12)c1ccccc1 [SB-2220]
- substance-P-enhanced ChAT firing rate, further block (NAcC ChAT neurons; addition of 1 μM NK3R antagonist SB-2220, Figure S4J): not blocked any further

Molecule: Cl.FC(F)(F)c1cc(CO[C@H]2CCCN[C@H]2c2ccccc2)cc(C(F)(F)F)c1 [L-733,060]
- concentration of maximal inhibition of receptor activity [4]: ~10 µM
- EPSC amplitude, %baseline (block of substance-P-induced potentiation) (NAcC D2-MSNs [1]; L-733,060 10 μM with substance P bath application, n = 9, p > 0.05, Figure 2B): 101.1% ±7.07%
- EPSC amplitude, %baseline (block of stimulation-induced potentiation) (NAcC D2-MSNs [1]; L-733,060, 5 min of NAcC D1-MSN 50-Hz stimulation, transient depression, Figure S2B): 79.52% ± 8.22%
- effect of antagonist alone on synaptic properties (NAcC D2-MSNs [1]): neither L-733,060 nor aprepitant altered synaptic properties
- spontaneous ChAT firing rate in the absence of substance P (NAcC ChAT neurons): did not have effects on spontaneous ChAT firing rate
- stimulation-enhanced ChAT firing rate (NAcC ChAT neurons; L-733,060 10 μM, Figure S5C): blocked
- substance-P-enhanced ChAT firing rate (NAcC ChAT neurons; L-733,060 10 μM, Figures 4F, 4G): suppressed
- concentration of maximal inhibition of enhanced ChAT firing (NAcC ChAT neurons; against 100 nM substance P, Figure 4E): 10 µM

Molecule: picrotoxin
- increase in baseline ChAT firing frequency (NAcC ChAT neurons; picrotoxin, on average, Figure S5F): 1.37 ± 0.66 Hz

Molecule: O=C(O)CN(CC(=O)O)c1ccccc1OCCOc1ccccc1N(CC(=O)O)CC(=O)O [BAPTA, 1,2-bis(o-aminophenoxy)ethane-N,N,N′,N′-tetra-acetic acid]
- cells potentiated (NAcC D2-MSNs [1]; BAPTA 10 mM internal, D1-MSN 50-Hz stimulation, Figure 7E): 3/9
- paired pulse ratio change after stimulation (NAcC D2-MSNs [2]): lack of ability to detect a change in PPR
